Source: patent US9186334B2 (Nuvo Research Inc., priority 2009, dated 2015)

Details: transdermal, 12 subjects
Procedure: Specifically, a single site, open label study was conducted on 12 subjects, with 4-way cross-over. Four (4) patches were applied for 2, 4, or 12 hours.

For CCN(CC)CC(=O)Nc1c(C)cccc1C [lidocaine], the “rate of delivery, heated patch versus unheated patch” value was “more rapidly”.
